According to ChEMBL document CHEMBL6103672, “Discovery of HMPL-306 (Ranosidenib), a New Potent and Selective Dual Inhibitor of Mutant IDH1 and 2 in Clinical Development for Cancer Treatment” (ACS Med Chem Lett, 2025):

How the values were obtained:
[1] = Inhibition of IDH2 R140Q mutant in human U-87 MG cells incubated for 72 hrs by measuring 2-HG production by fluorescence based analysis; format: functional, cell-based, U-87MG ATCC; conditions: Homo sapiens, U-87 MG, 72 h
[2] = Inhibition of IDH1 R132H mutant in human U-87 MG cells incubated for 72 hrs by measuring 2-HG production by fluorescence based analysis; format: functional, cell-based, U-87MG ATCC; conditions: Homo sapiens, U-87 MG, 72 h
[3] = Apparent permeability across basolateral to apical side in human Caco-2 cells at 10 uM incubated for 1 hrs by LC-MS/MS analysis
[4] = Metabolic stability in male SD rat liver microsomes assessed as parent compound remaining at 1 uM measured after 30 mins in presence of NADPH by LC-MS analysis; format: ADME, Microsome; conditions: Sprague-Dawley, read-out: Stability
[5] = Metabolic stability in male ICR mouse liver microsomes assessed as parent compound remaining at 1 uM measured after 30 mins in presence of NADPH by LC-MS analysis; format: ADME, Microsome; conditions: read-out: Stability
[6] = Clearance in male ICR mouse at 2.5 mg/kg, iv measured after 8 hrs by LC/MS/MS analysis; format: ADME, organism-based; conditions: in vivo
[7] = Volume of distribution at steady state in male ICR mouse at 2.5 mg/kg, iv measured after 8 hrs by LC/MS/MS analysis; format: ADME, organism-based; conditions: in vivo, read-out: Vdss
[8] = AUC(0 to t) in male ICR mouse at 10 mg/kg, po measured upto 24 hrs by LC/MS/MS analysis; format: ADME, organism-based; conditions: in vivo
[9] = AUC(0 to infinity) in male ICR mouse at 10 mg/kg, po measured after 8 hrs by LC/MS/MS analysis; format: ADME, organism-based; conditions: in vivo
[10] = Oral bioavailability in male ICR mouse at 10 mg/kg measured after 8 hrs by LC/MS/MS analysis; format: ADME, organism-based; conditions: in vivo
[11] = Inhibition of IDH1 R132H mutant in human TF-1 cells incubated for 72 hrs by measuring 2-HG production by fluorescence based analysis; format: functional, cell-based; conditions: TF-1, 72 h
[12] = Inhibition of IDH1 R132C mutant in human HT-1080 cells incubated for 72 hrs by measuring 2-HG production by fluorescence based analysis; format: functional, cell-based; conditions: HT-1080, 72 h
[13] = Inhibition of IDH2 R140Q mutant in human TF-1 cells incubated for 72 hrs by measuring 2-HG production by fluorescence based analysis; format: functional, cell-based; conditions: TF-1, 72 h
[14] = Inhibition of IDH2 R172K mutant in human HEK293 cells incubated for 72 hrs by measuring 2-HG production by fluorescence based analysis; format: functional, cell-based; conditions: HEK293, 72 h
[15] = AUC(0 to t) in male ICR mouse at 2.5 mg/kg, iv measured after 24 hrs by LC/MS/MS analysis; format: ADME, organism-based; conditions: in vivo
[16] = AUC(0 to t) in male Sprague-Dawley rat at 1 mg/kg, iv measured after 144 hrs by LC/MS/MS analysis; format: ADME, organism-based; conditions: in vivo
[17] = AUC(0 to t) in male Sprague-Dawley rat at 5 mg/kg, po measured after 144 hrs by LC/MS/MS analysis; format: ADME, organism-based; conditions: in vivo
[18] = AUC(0 to infinity) in male ICR mouse at 2.5 mg/kg, iv measured after 8 hrs by LC/MS/MS analysis; format: ADME, organism-based; conditions: in vivo
[19] = AUC(0 to infinity) in male Sprague-Dawley rat at 1 mg/kg, iv measured after 24 hrs by LC/MS/MS analysis; format: ADME, organism-based; conditions: in vivo
[20] = AUC(0 to infinity) in male Sprague-Dawley rat at 5 mg/kg, po measured after 24 hrs by LC/MS/MS analysis; format: ADME, organism-based; conditions: in vivo
[21] = Cmax in male Sprague-Dawley rat at 5 mg/kg, po measured after 24 hrs by LC/MS/MS analysis; format: ADME, organism-based; conditions: in vivo
[22] = Half life in male ICR mouse at 2.5 mg/kg, iv measured after 8 hrs by LC/MS/MS analysis; format: ADME, organism-based; conditions: in vivo
[23] = Half life in male Sprague-Dawley rat at 5 mg/kg, po measured after 24 hrs by LC/MS/MS analysis; format: ADME, organism-based; conditions: in vivo
[24] = Oral bioavailability in male Sprague-Dawley rat at 5 mg/kg measured after 24 hrs by LC/MS/MS analysis; format: ADME, organism-based; conditions: in vivo
[25] = In vivo inhibition of 2-HG in BALB/c nude mouse xenografted with human U-87 MG cells harboring IDH2 R140Q mutant at 25 mg/kg, po measured after 24 hrs post dose; format: functional; conditions: Mus musculus, BALB/c, U-87 MG
[26] = In vivo inhibition of 2-HG in BALB/c nude mouse xenografted with human U-87 MG cells harboring IDH2 R140Q mutant at 25 mg/kg, po measured after 40 hrs post dose; format: functional; conditions: Mus musculus, BALB/c, U-87 MG
[27] = biological target: Voltage-gated inwardly rectifying potassium channel KCNH2 (Homo sapiens, UniProt Q12809); experiment: Inhibition of hERG expressed in CHO cells by manual patch-clamp assay; format: toxicity, cell-based
Sequence of Voltage-gated inwardly rectifying potassium channel KCNH2 (Q12809 whole entry): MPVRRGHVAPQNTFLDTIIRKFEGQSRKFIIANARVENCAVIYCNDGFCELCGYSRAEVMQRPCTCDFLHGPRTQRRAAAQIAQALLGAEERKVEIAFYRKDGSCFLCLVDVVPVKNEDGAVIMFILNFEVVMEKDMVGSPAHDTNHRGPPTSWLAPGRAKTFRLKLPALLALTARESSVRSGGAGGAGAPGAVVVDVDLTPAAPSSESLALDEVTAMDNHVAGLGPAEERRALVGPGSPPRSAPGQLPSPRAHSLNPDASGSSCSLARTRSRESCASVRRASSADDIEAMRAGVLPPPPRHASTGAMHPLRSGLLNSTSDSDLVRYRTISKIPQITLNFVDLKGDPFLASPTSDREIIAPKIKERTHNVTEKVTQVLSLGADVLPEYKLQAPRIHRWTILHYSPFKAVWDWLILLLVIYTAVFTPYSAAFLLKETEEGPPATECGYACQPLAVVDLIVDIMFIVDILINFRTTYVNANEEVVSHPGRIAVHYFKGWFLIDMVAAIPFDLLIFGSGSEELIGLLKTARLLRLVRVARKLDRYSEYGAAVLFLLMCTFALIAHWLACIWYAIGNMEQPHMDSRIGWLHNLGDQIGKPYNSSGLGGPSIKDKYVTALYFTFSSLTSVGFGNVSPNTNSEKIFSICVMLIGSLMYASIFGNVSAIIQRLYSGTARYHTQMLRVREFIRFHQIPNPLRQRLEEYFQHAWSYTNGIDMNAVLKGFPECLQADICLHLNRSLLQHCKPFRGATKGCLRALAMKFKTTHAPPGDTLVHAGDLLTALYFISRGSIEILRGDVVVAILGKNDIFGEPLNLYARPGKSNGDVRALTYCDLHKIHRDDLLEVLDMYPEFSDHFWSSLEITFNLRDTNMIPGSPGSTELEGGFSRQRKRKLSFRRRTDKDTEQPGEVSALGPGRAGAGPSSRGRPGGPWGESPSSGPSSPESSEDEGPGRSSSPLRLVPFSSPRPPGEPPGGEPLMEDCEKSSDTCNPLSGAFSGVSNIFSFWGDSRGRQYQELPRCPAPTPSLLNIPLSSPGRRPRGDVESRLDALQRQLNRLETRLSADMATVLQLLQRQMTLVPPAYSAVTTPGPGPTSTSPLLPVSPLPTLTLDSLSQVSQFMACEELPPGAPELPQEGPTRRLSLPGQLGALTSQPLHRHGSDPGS

Adenosine receptor A3 = biological target: T1, Adenosine receptor A3 (Homo sapiens, UniProt P0DMS8); experiment: Inhibition of adenosine A3 receptor (unknown origin); format: toxicity
T1 sequence (P0DMS8 whole entry): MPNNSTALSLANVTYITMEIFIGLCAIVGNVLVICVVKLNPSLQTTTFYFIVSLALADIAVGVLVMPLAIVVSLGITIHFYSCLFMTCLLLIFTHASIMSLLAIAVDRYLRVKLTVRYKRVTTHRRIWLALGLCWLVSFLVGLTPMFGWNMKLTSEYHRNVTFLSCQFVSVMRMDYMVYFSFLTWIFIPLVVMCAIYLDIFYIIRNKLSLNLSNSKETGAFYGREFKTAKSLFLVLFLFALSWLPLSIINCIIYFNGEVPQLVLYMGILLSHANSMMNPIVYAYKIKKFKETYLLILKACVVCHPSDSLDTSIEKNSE

UGT1A1 = biological target: T2, UGT1A1 (Homo sapiens, UniProt P22309); experiment: Inhibition of UGT1A1 (unknown origin) at 10 uM relative to control; format: ADME
T2 sequence (P22309 whole entry): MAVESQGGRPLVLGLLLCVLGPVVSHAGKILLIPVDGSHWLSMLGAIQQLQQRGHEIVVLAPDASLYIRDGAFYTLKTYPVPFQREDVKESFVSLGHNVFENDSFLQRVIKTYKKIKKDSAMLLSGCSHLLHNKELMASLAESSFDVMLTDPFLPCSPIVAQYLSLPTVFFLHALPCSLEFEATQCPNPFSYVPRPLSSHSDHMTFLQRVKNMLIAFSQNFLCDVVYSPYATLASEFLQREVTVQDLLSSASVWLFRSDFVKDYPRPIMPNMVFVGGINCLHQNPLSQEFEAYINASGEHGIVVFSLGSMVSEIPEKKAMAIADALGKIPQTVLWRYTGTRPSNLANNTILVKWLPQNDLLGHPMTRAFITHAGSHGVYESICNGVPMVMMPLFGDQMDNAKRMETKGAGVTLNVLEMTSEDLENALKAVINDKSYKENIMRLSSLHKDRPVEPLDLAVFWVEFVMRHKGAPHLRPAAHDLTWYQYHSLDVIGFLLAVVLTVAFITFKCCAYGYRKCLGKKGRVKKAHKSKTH

[28] = Ratio of drug concentration in brain to plasma of BALB/c nude mouse xenografted with human U-87 MG cells harboring IDH2 R140Q mutant at 50 mg/kg measured after 24 hrs by LC/MS/MS analysis; format: ADME, organism-based; conditions: read-out: BPR

`C[C@@H](Nc1nc(N[C@H](C)C(F)(F)F)nc(C2=C(F)[C@H](O)C(F)(F)CC2)n1)C(F)(F)F` [RANOSIDENIB] gave an IC50 [1] of 31 nM, an IC50 [2] of 50 nM and a Papp B→A at 1 h, 10 µM [3] of 24 ×10⁻⁶ cm/s. The remaining at 0.5 h, 1 µM [4] was 99.5%, the remaining at 0.5 h, 1 µM [5] was 98.4% and the clearance [6] was 3.3 mL/min/kg. The Vd [7] was 2.57 L/kg, the AUC(0-t) at 24 h [8] was 35000 ng·h/mL and the AUC(0-inf) [9] was 62000 ng·h/mL. For the same molecule, the bioavailability [10] was 84.2%, the IC50 [11] was 31 nM and the IC50 [12] was 26 nM. For the same molecule, the IC50 [13] was 21 nM, the IC50 [14] was 425 nM and the AUC(0-t) at 24 h [15] was 10400 ng·h/mL. The AUC(0-t) at 144 h [16] was 17100 ng·h/mL, the AUC(0-t) at 144 h [17] was 96600 ng·h/mL and the AUC(0-inf) [18] was 12700 ng·h/mL. For the same molecule, the AUC(0-inf) [19] was 19800 ng·h/mL, the AUC(0-inf) [20] was 112000 ng·h/mL and the Cmax [21] was 1490 ng/mL. The half-life [22] was 10.6 h, the half-life [23] was 50.4 h and the bioavailability [24] was 113%. For the same molecule, the inhibition in vivo at 25 mg/kg [25] was 98%, the inhibition in vivo at 25 mg/kg [26] was 93% and the IC50 [27] was over 30000 nM. For the same molecule, the IC50 (Adenosine receptor A3) was 8500 nM, the inhibition at 10 µM (UGT1A1) was 46.7% and the Kp at 24 h [28] was 2.9.
